Where a name gives a salt, the structure may show the parent alone.
Tests used:
c-Rel = molecular target: T1, c-Rel (Homo sapiens, UniProt Q04864); test: TransAM NF-κB Family DNA Binding ELISA, c-Rel; conditions: for inhibition at 5 µM: read-out: c-Rel binding % inhibit. at 5 uM, at 5 uM; for IC50: c-Rel binding IC50 (uM), cells without % sign
T1 sequence (Q04864 2-619 limits assumed): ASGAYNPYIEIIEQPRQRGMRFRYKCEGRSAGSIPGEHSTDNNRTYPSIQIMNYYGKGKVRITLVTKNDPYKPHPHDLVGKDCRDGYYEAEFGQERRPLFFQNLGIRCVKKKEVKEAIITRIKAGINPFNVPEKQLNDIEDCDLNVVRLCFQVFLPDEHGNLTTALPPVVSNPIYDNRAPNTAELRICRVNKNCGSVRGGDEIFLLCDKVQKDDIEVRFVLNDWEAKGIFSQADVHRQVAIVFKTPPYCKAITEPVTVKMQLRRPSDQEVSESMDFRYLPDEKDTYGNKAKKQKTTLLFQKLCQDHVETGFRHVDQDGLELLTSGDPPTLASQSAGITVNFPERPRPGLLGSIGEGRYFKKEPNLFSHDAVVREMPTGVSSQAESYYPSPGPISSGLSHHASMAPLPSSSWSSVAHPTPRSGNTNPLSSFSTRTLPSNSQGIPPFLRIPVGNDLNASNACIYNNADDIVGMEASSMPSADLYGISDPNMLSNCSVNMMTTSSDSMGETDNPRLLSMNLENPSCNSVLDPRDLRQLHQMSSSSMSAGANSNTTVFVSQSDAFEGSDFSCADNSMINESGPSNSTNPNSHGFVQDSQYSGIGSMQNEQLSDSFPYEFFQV
Procedure: (§2) Treated samples were then transferred to 30 μL Complete Binding Buffer (with DTT) in microplate wells pre-coated with the NF-κB consensus oligonucleotide. […] The plate was incubated for 1 hour at room temperature with gentle shaking and then washed 3 times with 200 μL 1× Wash Buffer. NF-κB p65, p50, p52, RelB, or c-Rel subunits bound to the plate were detected with 100 μL of the primary antibody (diluted 1:1000 in 1× Antibody Buffer) specific for that subunit. The plate was incubated for 1 hour at room temperature and then washed 3 times with 200 μL 1× Wash Buffer. Next, 100 μL of a HRP conjugated goat anti-rabbit antibody (diluted 1:1,000 in 1× Antibody Buffer) was added to each well. The plate was incubated for 1 hour at room temperature and then washed 4 times with 200 μL 1× Wash Buffer. 100 μL of room temperature Developing Solution was added to each well. The reaction was allowed to develop for 2-10 minutes until a medium dark blue color developed (depending on the subunit activity in the lot of extract or lot of recombinant protein used) and then the reaction was stopped with 100 μL Stop Solution yielding a yellow color. Absorbance was recorded using a Becton-Dickinson DTX 880 Multimode Detector at 450 nm with a reference wavelength subtracted at 620 nm.

NF-κB [1] = test: 293-cell pTRH1-NF-κB-dscGFP reporter assay, TNF-α induced; format: cell-based; conditions: Homo sapiens, HEK293, HEK293 cells, NF-κB driven GFP expression; read-out: NF-kB/293/GFP EC50
Procedure: (§1) Inhibition of NF-κB in cells by the compound of Example 1. Two reporter cell assays were used to determine the ability of the compound of Example 1 to inhibit NE-KB driven transcription. The first assay was a 293-cell based assay with a stably integrated pNF-κB-luc reporter plasmid containing 3 NF-κB promoter elements. The second assay was a 293-cell based assay with a stably integrated pTRH1-NF-κB-dscGFP reporter containing 4 NF-κB promoter elements. Cells were treated with 0, 0.2, 1, 10, 20 and 40 μM of the compound of Example 1 for 2 hours then were induced with 20 ng/ml TNF-α for 18 hours. Following the induction, luminescence or fluorescence was quantified using a Beckman-Coulter 2300 plate reader. […] These values represent the median value generated from three independent experiments±the standard error. As a control, 0.5% DMSO treated and untreated cells were compared to verify that the Example 1 carrier had no effect on the expression of luciferase or in the readout of the assay. There was a slight decrease in the output from the assay in the DMSO treated population although it was not statistically significant. As a result of the controls, the decrease in activity in the drug treated samples was compared to the DMSO control sample.

p65 (RelA) = p65 (RelA) (Homo sapiens, UniProt Q04206); test: TransAM NF-κB Family DNA Binding ELISA, p65; conditions: p65 binding IC50 (uM), binding to NF-κB sites
Chain of p65 (RelA) (Q04206 whole entry): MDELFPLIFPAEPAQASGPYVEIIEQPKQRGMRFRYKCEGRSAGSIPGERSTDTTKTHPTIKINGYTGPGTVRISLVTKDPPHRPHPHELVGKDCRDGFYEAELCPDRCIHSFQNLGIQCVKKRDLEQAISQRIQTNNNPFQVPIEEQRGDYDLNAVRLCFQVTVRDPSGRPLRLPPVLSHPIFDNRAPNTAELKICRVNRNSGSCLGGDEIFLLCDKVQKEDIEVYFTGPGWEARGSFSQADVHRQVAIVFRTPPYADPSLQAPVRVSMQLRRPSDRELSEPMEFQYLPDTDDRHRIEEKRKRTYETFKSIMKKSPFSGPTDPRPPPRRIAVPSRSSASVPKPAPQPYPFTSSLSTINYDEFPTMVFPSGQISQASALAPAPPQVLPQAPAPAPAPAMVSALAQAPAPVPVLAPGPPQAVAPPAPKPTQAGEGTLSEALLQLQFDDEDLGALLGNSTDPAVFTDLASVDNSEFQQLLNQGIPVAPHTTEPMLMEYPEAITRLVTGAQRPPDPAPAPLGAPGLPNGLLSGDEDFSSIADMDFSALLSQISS

p50 = molecular target: T2, p50 (Homo sapiens, UniProt P19838); test: TransAM NF-κB Family DNA Binding ELISA, p50; conditions: for IC50: p50 binding IC50 (uM), cells without % sign; for inhibition at 5 µM: read-out: p50 binding % inhibit. at 5 uM
T2 sequence (P19838 1-433 limits assumed): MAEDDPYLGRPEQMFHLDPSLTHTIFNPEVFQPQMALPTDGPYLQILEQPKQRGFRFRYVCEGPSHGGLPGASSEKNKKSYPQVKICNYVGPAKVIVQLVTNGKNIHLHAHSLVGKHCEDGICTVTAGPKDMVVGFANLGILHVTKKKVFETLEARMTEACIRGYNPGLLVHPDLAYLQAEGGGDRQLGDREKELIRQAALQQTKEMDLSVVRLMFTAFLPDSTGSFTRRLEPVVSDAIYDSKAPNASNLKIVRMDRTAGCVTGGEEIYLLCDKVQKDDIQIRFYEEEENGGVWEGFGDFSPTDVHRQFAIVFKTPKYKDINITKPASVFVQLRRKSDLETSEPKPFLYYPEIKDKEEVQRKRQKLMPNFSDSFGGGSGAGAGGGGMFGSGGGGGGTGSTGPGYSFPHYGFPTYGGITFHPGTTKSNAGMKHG
Procedure: as §2

p52 = molecular target: T3, p52 (Homo sapiens, UniProt Q00653); test: TransAM NF-κB Family DNA Binding ELISA, p52; conditions: for IC50: p52 binding IC50 (uM), cells without % sign; for inhibition at 5 µM: read-out: p52 binding % inhibit. at 5 uM, at 5 uM
T3 sequence (Q00653 1-454 limits assumed): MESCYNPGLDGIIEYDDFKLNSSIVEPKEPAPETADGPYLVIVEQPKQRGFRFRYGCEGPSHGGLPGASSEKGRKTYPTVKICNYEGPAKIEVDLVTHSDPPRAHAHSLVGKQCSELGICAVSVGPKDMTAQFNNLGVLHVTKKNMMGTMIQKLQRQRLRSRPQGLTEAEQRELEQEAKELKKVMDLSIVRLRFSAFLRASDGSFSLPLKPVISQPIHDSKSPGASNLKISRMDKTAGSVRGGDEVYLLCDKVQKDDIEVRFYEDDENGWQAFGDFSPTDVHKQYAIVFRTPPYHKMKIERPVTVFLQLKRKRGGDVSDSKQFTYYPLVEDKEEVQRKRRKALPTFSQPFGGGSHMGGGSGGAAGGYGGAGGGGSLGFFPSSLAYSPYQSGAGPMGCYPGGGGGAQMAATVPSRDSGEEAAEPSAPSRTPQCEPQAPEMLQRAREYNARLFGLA
Procedure: as §2

NF-κB [2] = test: 293-cell pNF-κB-luc reporter assay, TNF-α induced; format: cell-based; conditions: HEK293 cells, NF-κB driven luciferase expression, read-out: 293/NFkB-luc EC50
Procedure: as §1

RelB = molecular target: T4, RelB (Homo sapiens, UniProt Q01201); test: TransAM NF-κB Family DNA Binding ELISA, RelB; conditions: for inhibition at 5 µM: read-out: RelB binding % inhibit. at 5 uM, at 5 uM; for IC50: RelB binding IC50 (uM), cells without % sign
T4 sequence (Q01201 1-579): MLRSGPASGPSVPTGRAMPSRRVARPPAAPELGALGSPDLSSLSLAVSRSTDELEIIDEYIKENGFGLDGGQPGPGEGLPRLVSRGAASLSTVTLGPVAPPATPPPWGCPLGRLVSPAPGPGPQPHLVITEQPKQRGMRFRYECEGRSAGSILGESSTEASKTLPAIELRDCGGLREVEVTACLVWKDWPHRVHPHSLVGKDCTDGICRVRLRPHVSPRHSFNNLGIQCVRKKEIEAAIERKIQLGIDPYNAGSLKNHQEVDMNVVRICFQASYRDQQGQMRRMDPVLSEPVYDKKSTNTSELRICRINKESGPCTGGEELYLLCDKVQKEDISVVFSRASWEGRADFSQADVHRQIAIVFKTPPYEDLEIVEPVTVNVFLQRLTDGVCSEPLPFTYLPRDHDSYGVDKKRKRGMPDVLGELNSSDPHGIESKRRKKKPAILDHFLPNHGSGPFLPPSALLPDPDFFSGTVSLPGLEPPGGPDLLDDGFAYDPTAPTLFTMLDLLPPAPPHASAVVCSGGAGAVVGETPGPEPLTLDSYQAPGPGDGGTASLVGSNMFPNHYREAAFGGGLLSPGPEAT
T4 sequence (Q00653 1-454 partner limits assumed): T3 sequence (Q00653 1-454 limits assumed)
Procedure: as §2

[3] = test system: IL-6 release from RAW264.7 cells; test: IL-6 release from LPS stimulated RAW264.7 cells; format: cell-based, mouse
Procedure: Specifically, A and B show the effects of the compound of Example 1 on soluble PGE2 and Il-6 secretion from RAW264.7 cells stimulated by 1 μg/mL of LPS. The cells were treated with the indicated concentrations of the compound of Example 1 for 2 hours, and then LPS was added and incubation continued for 4 hours. […]

[4] = Mus musculus, RAW264.7, RAW 264.7 cells

Row | inhibition at 5 µM (c-Rel) [%] | EC50 (NF-κB [1]) [µM] | IC50 (p65 (RelA)) [µM] | IC50 (p50) [µM] | IC50 (p52) [µM] | EC50 (NF-κB [2]) [µM] | inhibition at 5 µM (RelB) [%] | EC50 [3, 4] [µM] | IC50 (c-Rel) [µM] | IC50 (RelB) [µM] | inhibition at 5 µM (p50) [%] | inhibition at 5 µM (p52) [%] | c-Rel binding % inhibit. at 5 uM (c-Rel) [%] | RelB binding % inhibit. at 5 uM (RelB) [%] | EC50 ([3]; RAW 264.7 cells) [µM] | EC50 (NF-κB [2]; trifluoroacetate) [µM] | EC50 ([3]; RAW 264.7 cells, trifluoroacetate) [µM] | p52 binding % inhibit. at 5 uM (p52; at 5 uM) [%] | EC50 (NF-κB [2]; mesylate) [µM] | EC50 ([3]; RAW 264.7 cells, mesylate) [µM] | Compound
1 | 23 | 40 | 5 | 118 | 365 | > 51 | 21 | > 51 | – | – | – | – | – | – | – | – | – | – | – | – | O=C(NC1=CC(=O)C2OC2C1O)c1cnccc1O (racemic) [Example 4, (±)-4-hydroxy-N-(2-hydroxy-5-oxo-7-oxa-bicyclo[4.1.0]hept-3-en-3-yl)-nicotinamide]
2 | – | 1.2 | 0.88 | 20 | 3.7 | 7.1 | – | 0.64 | 0.8 | 1.7 | – | – | – | – | – | – | – | – | – | – | COc1ncccc1C(=O)NC1=CC(=O)C2OC2C1O (racemic) [Example 16, (±)-N-(2-hydroxy-5-oxo-7-oxa-bicyclo[4.1.0]hept-3-en-3-yl)-2-methoxy-nicotinamide]
3 | 40 | 5.8 | 4.6 | – | – | 15 | 18 | 7.7 | – | – | 4 | 9 | – | – | – | – | – | – | – | – | O=C(NC1=CC(=O)C2OC2C1O)c1cnc(N2CCCCC2)nc1O (racemic) [Example 11, (±)-4-hydroxy-2-piperidin-1-yl-pyrimidine-5-carboxylic acid (2-hydroxy-5-oxo-7-oxa-bicyclo[4.1.0]hept-3-en-3-yl)-amide]
4 | – | 2.2 | 4.5 | 129 | 59 | 0.46 | – | 0.16 | 11 | 12 | – | – | – | – | – | – | – | – | – | – | COc1c(C(=O)NC2=CC(=O)C3OC3C2O)ccc2cccnc12 (racemic) [Example 29, (±)-N-(2-hydroxy-5-oxo-7-oxabicyclo[4.1.0]hept-3-en-3-yl)-8-methoxyquinoline-7-carboxamide]
5 | – | 3.4 | – | > 636 | 301 | 15 | – | – | – | – | – | – | 15 | 0 | 1.4 | – | – | – | – | – | O=C(NC1=CC(=O)C2OC2C1O)c1ncccc1O (racemic) [Example 3, (±)-3-hydroxy-N-(2-hydroxy-5-oxo-7-oxabicyclo[4.1.0]hept-3-en-3-yl)picolinamide]
6 | 6 | 4.9 | 488 | – | – | 11 | 0 | 1 | – | – | 0 | 0 | – | – | – | – | – | – | – | – | O=C(NC1=CC(=O)C2OC2C1O)c1nc2ccccc2cc1O (racemic) [Example 15, (±)-3-hydroxy-quinoline-2-carboxylic acid-(2-hydroxy-5-oxo-7-oxa-bicyclo[4.1.0]hept-3-en-3-yl)-amide]
7 | – | – | 0.55 | 22 | 22 | – | – | – | 1.1 | 1.5 | – | – | – | – | – | 5.8 | 0.38 | – | – | – | COc1ncccc1C(=O)NC1=CC(=O)C2OC2C1O (racemic) [Example 21, (±)-N-(2-hydroxy-5-oxo-7-oxa-bicyclo[4.1.0]hept-3-en-3-yl)-2-methoxy-nicotinamide trifluoroacetate]
8 | – | 11 | 4.7 | 246 | 84 | 16 | – | 1.6 | 14 | 12 | – | – | – | – | – | – | – | – | – | – | COc1nccnc1C(=O)NC1=CC(=O)C2OC2C1O (racemic) [Example 26, (±)-3-methoxy-pyrazine-2-carboxylic acid (2-hydroxy-5-oxo-7-oxa-bicyclo[4.1.0]hept-3-en-3-yl)-amide]
9 | – | – | – | – | – | – | – | – | – | – | – | – | 7 | 6 | – | – | – | 14 | 22 | 2.5 | CS(=O)(=O)O.O=C(NC1=CC(=O)C2OC2C1O)c1ncccc1O (racemic) [Example 12, (±)-3-hydroxy-N-(2-hydroxy-5-oxo-7-oxabicyclo[4.1.0]hept-3-en-3-yl)picolinamide, mesylate]
